Test results: patent publication US20250326790A1, “PEPTIDES BINDING TO HYPOXIA INDUCIBLE FACTORS AND THEIR USE” (UNIVERSITY OF SOUTHAMPTON, priority 2021, published 2025)
*1 amine or outer side, *2 acyl side, *3 side chain or, on linkers, in order; H or OH if unused. Where a SMILES comes first, the peptide text is derived from it. [ ]: non-standard residue; d: D form. Phe(4-I) = N[C@@H](Cc1ccc(I)cc1)C(=O)O; hLeu = CC(C)CC[C@H](N)C(=O)O; CO = O=C([*:1])[*:2]

Each molecule was assayed against recombinantly expressed PAS-B domain of HIF-1α (Homo sapiens (Human), UniProt Q16665) (assay: MST binding affinity to PAS-B domain of HIF-1α). Details: microscale thermophoresis, 50 nM labelled protein, 10% DMSO.
Chain of recombinantly expressed PAS-B domain of HIF-1α (Q16665 228-298): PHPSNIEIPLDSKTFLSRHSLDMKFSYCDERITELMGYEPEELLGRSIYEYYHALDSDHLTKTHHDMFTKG
Protocol: MST experiments were performed on a Monolith NT.115 system (Nanotemper Technologies GmbH), in assay buffer containing 50 nM labelled protein, 10% DMSO and 0.05% TWEEN-20. MST measurements were performed using 50% LED and 50% MST power.

Row | SMILES | Kd [µM]
1 | CNC(=O)N[C@@H](CCC(C)C)C(=O)N[C@@H](Cc1ccc(I)cc1)C(=O)N[C@@H](CS)C(N)=O [Example 5] ({NHMe-CO}-[hLeu]-[Phe(4-I)]-Cys-NH2) | > 50
2 | Cc1c(S(=O)(=O)N[C@@H](CCC(C)C)C(=O)N[C@@H](Cc2ccc(I)cc2)C(=O)N[C@@H](CS)C(N)=O)sc2ccc(Cl)cc12 [Example 28] | 8
3 | CC(C)CC[C@H](NS(=O)(=O)c1ccc(Cl)s1)C(=O)N[C@@H](Cc1ccc(I)cc1)C(=O)N[C@@H](CS)C(=O)NCCCCCN [Example 40] | 100
4 | CC(C)CC[C@H](NS(=O)(=O)c1cc(Cl)c(Cl)s1)C(=O)N[C@@H](Cc1ccc(I)cc1)C(=O)N[C@@H](CC(N)=O)C(=O)NCCCCl [Example 58] | > 500
5 | CC(C)CC[C@H](NS(=O)(=O)c1cc(Cl)c(Cl)s1)C(=O)N(C)[C@@H](Cc1ccc(I)cc1)C(=O)N[C@@H](CN)C(=O)NCCCCl [Example 59] | > 500
6 | CC(C)CC[C@H](NS(=O)(=O)c1cc(Cl)c(Cl)s1)C(=O)N[C@@H](Cc1ccc(I)cc1)C(=O)N[C@@H](CC(F)(F)F)C(=O)NCCCCl [Example 66] | > 125
7 | CC(C)CC[C@H](NS(=O)(=O)c1cc(Cl)c(Cl)s1)C(=O)N(C)[C@@H](Cc1ccc(I)cc1)C(=O)N[C@@H](CN1CCOCC1)C(=O)NCCCCl [Example 67] | > 500
8 | CC(C)CC[C@H](NS(=O)(=O)c1cc(Cl)c(Cl)s1)C(=O)N[C@@H](Cc1ccc(I)cc1)C(=O)N[C@@H](CS(N)(=O)=O)C(=O)NCCCCl [Example 68] | > 500
9 | CNC[C@H](NC(=O)[C@H](Cc1ccc(I)cc1)NC(=O)[C@H](CCC(C)C)NS(=O)(=O)c1cc(Cl)c(Cl)s1)C(=O)NCCCCl [Example 72] | > 500
